Results from patent US12718601B2, “Using machine learning and/or neural networks to validate stem cells and their derivatives (2-D cells and 3-D tissues) for use in cell therapy and tissue engineered products” (The United States of America, as represented by the …, priority 2018, dated 2026).

Legend:
Assay type in all cases: cell-based, human
iRPE [1] = assay: Single cell image features from DNN-S segmented QBAM images of drug-treated iRPE; conditions: for CPI_IntegratedIntensityEdge.K (Intensity 10), Mean / ML_MinIntensity.Mean (Intensity 1), Mean: Healthy-2 iRPE, 3.0 μmol/L Aphidicolin or 30.0 μM HPI4
Description: QBAM imaging and live cell segmentation allows for hundreds of cell image features to be measured and tracked non-invasively on individual cells throughout iRPE maturation. Thus, the trained DNN-S was used to segment QBAM images of living iRPE (Healthy-1 and Healthy-2 donors) treated with Aphidicolin, HPI-4, or nothing (control). Previously published cell image features and intensity metrics known to correlate to RPE maturation and health were then assessed for significance. […] Importantly, this technique allows for unprecedented hierarchical granularity to the data; enabling not just whole well “bulk” tissue measurements, but also as a function of field of view or at an individual cell level Clustering of treatments based off of two features known to be important to RPE maturation and health, cell area and mean cell intensity were performed. Cell minimum intensity, a new metric related to iRPE function identified using SML, is described further below.
Following differentiation, iRPE from donors Healthy-1 and Healthy-2 were placed on a 12-well 0.4 μm polycarbonate transwell plate (Corning, 3401) at a seeding density of 500,000 cells/ml in 0.5 ml. Only six of the 12 wells were used to minimize the time spent outside of the incubator while imaging. QBAM imaging and drug treatments started two or one weeks after seeding for Healthy-1 and Healthy-2 iRPE, respectively. For each culture plate, two of the six wells were treated with either 3.0 μmol/L Aphidicolin (Sigma Aldrich, A0781-10 MG), 30.0 μM HPI4 (Hedgehog Pathway Inhibitor 4, Sigma Aldrich, H4541-25 MG), or no additives to the RPEMM culture medium. RPEMM was changed three times a week and imaged on the same day every week immediately after medium change. To prevent the culture plate lid from fogging during imaging, culture medium in wells were replaced with room temperature RPEMM (with drugs if needed) immediately before imaging since room temperature medium minimized condensation. RPEMM without drug was added to a well without any cells in it to capture the bright reference image for QBAM imaging. For each well, a 4×3 grid of overlapping images were captured (10-15% image overlap) for image stitching using a Zeiss AxioImager M2 microscope with a 10× objective. For Healthy-2 and Healthy-1, a total of six plates were prepared, with six wells occupied in each plate, yielding 36 total wells imaged and analyzed. The iRPE from AMD samples were previously reported by Sharma et al (Sharma et al., 2018), and the iRPE from OCA donors were cultured as described above, but were only imaged after they had matured and were fixed with PFA. In total five well replicates of OCA8, six replicates from OCA9, four replicates of OCA26, eight replicates of OCA71, and four replicates of OCA103 were imaged. For AMD data 1 replicate of AMD1 Clone A, 5 replicates of AMD1 Clone B, 1 Replicate of AMD2 Clone A, 5 replicates of AMD2 Clone B, 1 replicate of AMD2 Clone C, 1 replicate of AMD3 Clone A, 5 replicates of AMD3 Clone B, and 1 replicate of AMD3 Clone C were imaged.
No preprocessing was performed on QBAM images before they were processed with the DNN-S. The structure of the DNN-S was the same as that used to segment the fluorescent images, except the input image had three channels instead of one. The three channels were three QBAM images captured of the same field of view, but each QBAM image was captured at a different wavelength (488 nm, 561 nm, and 633 nm).
In order to extract as many cell-level features as possible, multiple widely were leveraged used image libraries for feature extraction that have been integrated into WIPP. While the feature values for the same feature definitions might vary, they provide insights on the amount of variation introduced not only by image acquisition but also by image processing. […]

iRPE [2] = assay: QBAM imaging of drug-treated iRPE (image absorbance); conditions: Healthy-1 and Healthy-2 iRPE, 8-week culture, weekly QBAM imaging
Excerpt: iRPE from each healthy donor (Healthy-1, Healthy-2) were imaged to determine if QBAM imaging affected cell maturation and could measure a large range in variation of iRPE pigmentation. This was done using three culture conditions: (1) control iRPE (no treatment), (2) iRPE treated with a known inducer of RPE maturation (Aphidicolin), and (3) iRPE treated with a known inhibitor of RPE maturation (hedgehog pathway inhibitor-4, HPI4).
Following differentiation, iRPE from donors Healthy-1 and Healthy-2 were placed on a 12-well 0.4 μm polycarbonate transwell plate (Corning, 3401) at a seeding density of 500,000 cells/ml in 0.5 ml. Only six of the 12 wells were used to minimize the time spent outside of the incubator while imaging. QBAM imaging and drug treatments started two or one weeks after seeding for Healthy-1 and Healthy-2 iRPE, respectively. For each culture plate, two of the six wells were treated with either 3.0 μmol/L Aphidicolin (Sigma Aldrich, A0781-10 MG), 30.0 μM HPI4 (Hedgehog Pathway Inhibitor 4, Sigma Aldrich, H4541-25 MG), or no additives to the RPEMM culture medium. RPEMM was changed three times a week and imaged on the same day every week immediately after medium change. […] For Healthy-2 and Healthy-1, a total of six plates were prepared, with six wells occupied in each plate, yielding 36 total wells imaged and analyzed. […]

iRPE [3] = assay: Electrophysiological measurements (TEP and TER) of iRPE monolayers; conditions: treated iRPE relative to control
Description: Electrical resistance measurements used for prediction of the iRPE monolayers were measured using an EVOM2 and EndOhm chamber (World Precision Instruments, EVOM2 and ENDOHM-12 respectively). Each line was measured for its resistance across 12 wells per treatment, per week. Intracellular transepithelial potential and resistance measurements in response to 1 mM potassium (Sigma Aldrich, P5405-1 KG) and 100 μM ATP (Sigma Aldrich, A9187-500 MG) were done identically to that of previous reports (Miyagishima et al., In Pursuit of Authenticity: Induced Pluripotent Stem Cell-Derived Retinal Pigment Epithelium for Clinical Applications, STEM CELLS Transl. Med. 5, 1562-1574 (2016)). Briefly, RPE monolayer cultures derived from iPSC lines were mounted on a modified “Ussing” chamber as described previously (Maminishkis et al., The P2Y2 Receptor Agonist INS37217 Stimulates RPE Fluid Transport In Vitro and Retinal Reattachment, Rat. Invest. Ophthalmol. Vis. Sci. 43, 3555-3566 (2002); Peterson et al., Extracellular ATP Activates Calcium Signaling, Ion, and Fluid Transport in Retinal Pigment Epithelium, J. Neurosci. 17, 2324-2337 (1997)). […] The signals from intracellular microelectrodes were referenced to the basal bath to measure the basolateral membrane potential (Vb) and the apical membrane potential (Va) was calculated by the equation: […]. […]

iRPE [4] = assay: mRNA and protein expression of maturation markers in iRPE; conditions: Aphidicolin treated iRPE compared with HPI4 treated iRPE
Description: Tissue preparation for immunohistochemistry was done by placing wells in 4% (mass/volume) paraformaldehyde (Electron Microscopy Science, 157-4-100) for 20 minutes. Immunohistochemistry blocking solution (IBS) consisted of 500 ml of 1× DPBS (Dulbecco's phosphate-buffered saline, Life Technologies, 14190250), 5% (mass/volume) bovine serum albumin (Sigma Aldrich, A3311), 0.5% (mass/volume) Triton X-100 (Sigma Aldrich, X100-100ML), and 0.5% (mass/volume) TWEEN20 (Sigma Aldrich, P2287-100ML). Fixed cells were washed with IBS three times and permeabilized for 2 hours with IBS at room temperature. Cells were then stained with the following primary antibody for 1 hour at room temperature: RPE65 (anti-RPE65 monoclonal antibody [1:300, Abcam, ab13826), Ezrin (monoclonal anti-ezrin antibody, 1:100, Sigma Aldrich, E8897), or GT335 (anti-polyglutamylation modification monoclonal antibody, 1:1000, Adipogen, AG-20B-0020). […] RNA was quantified using an ND-1000 spectrophotometer (Nanodrop Technologies) and the manufacturers protocol. cDNA synthesis was performed using the Script cDNA Synthesis Kit (Bio-Rad, 1708891) and the manufacturer provided protocols. […] An HPI4 well had to be excluded due to extremely low RNA extraction from the well and an insufficient quantity of cDNA being amplified to measured. […] Data was analyzed using R software (R Development Core Team, 2011).

SMILES | mean number of neighbors each iRPE cell had (iRPE [1]; Healthy-1 and Healthy-2 iRPE, across all time points, p<0.001) | CPI_IntegratedIntensityEdge.K (Intensity 10), Mean (iRPE [1]; week 2) | ML_MinIntensity.Mean (Intensity 1), Mean (iRPE [1]; week 2) | CPI_IntegratedIntensityEdge.K (Intensity 10), Mean (iRPE [1]; week 3) | ML_MinIntensity.Mean (Intensity 1), Mean (iRPE [1]; week 3) | CPI_IntegratedIntensityEdge.K (Intensity 10), Mean (iRPE [1]; week 4) | ML_MinIntensity.Mean (Intensity 1), Mean (iRPE [1]; week 4) | CPI_IntegratedIntensityEdge.K (Intensity 10), Mean (iRPE [1]; week 5) | ML_MinIntensity.Mean (Intensity 1), Mean (iRPE [1]; week 5) | CPI_IntegratedIntensityEdge.K (Intensity 10), Mean (iRPE [1]; week 6) | ML_MinIntensity.Mean (Intensity 1), Mean (iRPE [1]; week 6) | CPI_IntegratedIntensityEdge.K (Intensity 10), Mean (iRPE [1]; week 7) | ML_MinIntensity.Mean (Intensity 1), Mean (iRPE [1]; week 7) | image absorbance over time (iRPE [2]) | baseline electrical response (TEP and TER) and its change to 1 mM potassium (K+) or 100 μM ATP (iRPE [3]) | mRNA and protein expression of maturation markers (iRPE [4])
N#CC(=C(O)c1ccc(Cl)cc1Cl)c1nc2ccccc2c(=O)[nH]1 [HPI4] | significantly lower | 5.11 | 141.81 | 6.45 | 179.97 | 6.45 | 104.78 | 7.21 | 133.78 | 8.06 | 126.02 | 8.06 | 110.26 | decreasing trend in absorbance | significantly lower | 
C[C@@]1(CO)[C@H](O)CC[C@@]2(C)[C@H]1CC[C@H]1C[C@@H]3C[C@@]12CC[C@]3(O)CO [Aphidicolin] |  | 5.87 | 144.67 | 6.07 | 204.31 | 5.3 |  | 5.59 | 183.77 | 4.76 | 185.15 | 4.53 | 180.84 | increasing image absorbance | significantly greater | Higher
